The values below come from ChEMBL document CHEMBL5046291, “Evodiamine-Inspired Topoisomerase-Histone Deacetylase Dual Inhibitors: Novel Orally Active Antitumor Agents for Leukemia Therapy” (J Med Chem, 2022).

Active and inactive are the calls of the source. The calls are words filed in the database; no cut-off is given here. Bounds are passed on as bounds.

One assay relates to HEL. The experiment in a line: Antiproliferative activity against HEL cells assessed as cell growth inhibition incubated for 8 hrs by CCK8 assay. In kind it is functional, cell-based. As to conditions: Homo sapiens.
Assay [1] addresses DNA topoisomerase 2-alpha (Homo sapiens) (UniProt P11388). Put plainly: Inhibition of recombinant Top2 (unknown origin) assessed as inhibition of relaxation of supercoiled pBR322 plasmid DNA at 50 uM incubated for 15 mins by ethidium bromide staining based agarose gel electrophoresis analysis.
Assay [2] has the same target. The experiment in a line: Inhibition of recombinant Top2 (unknown origin) assessed as inhibition of relaxation of supercoiled pBR322 plasmid DNA at 100 uM incubated for 15 mins by ethidium bromide staining based agarose gel electrophoresis analysis.
A further assay concerns K562. The experiment in a line: Antiproliferative activity against human K562 cells assessed as cell growth inhibition incubated for 8 hrs by CCK8 assay. Particulars: K562, 8 h. The class given is functional, cell-based.
The next assay deals with Histone deacetylase 1 (Homo sapiens, UniProt Q13547). The experiment in a line: Inhibition of full-length recombinant human HDAC1 expressed in Baculovirus expression system using Ac-Leu-Gly-Lys(Ac)-AMC as substrate preincubated for 5 mins followed by substrate addition and further incubated for 30 mins by fluorescence based microtiter plate reader assay.
Histone deacetylase 1, sequence (Q13547 whole entry): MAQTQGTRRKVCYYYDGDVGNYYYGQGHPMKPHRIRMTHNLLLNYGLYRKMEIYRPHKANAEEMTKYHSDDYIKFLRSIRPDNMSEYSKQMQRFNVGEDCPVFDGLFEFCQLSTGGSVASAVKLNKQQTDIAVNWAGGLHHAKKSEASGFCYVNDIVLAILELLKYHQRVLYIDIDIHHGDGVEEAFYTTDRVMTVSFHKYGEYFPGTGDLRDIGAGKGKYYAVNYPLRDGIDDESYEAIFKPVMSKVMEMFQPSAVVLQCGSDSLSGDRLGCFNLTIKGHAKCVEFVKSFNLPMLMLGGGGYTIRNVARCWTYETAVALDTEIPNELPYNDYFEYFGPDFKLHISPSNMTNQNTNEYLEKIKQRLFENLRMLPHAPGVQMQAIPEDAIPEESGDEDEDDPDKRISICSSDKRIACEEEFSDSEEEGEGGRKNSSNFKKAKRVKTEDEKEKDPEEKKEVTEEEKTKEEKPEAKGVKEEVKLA
Assay [3] deals with T1, Histone deacetylase 2 (Homo sapiens, UniProt Q92769). The experiment in a line: Inhibition of HDAC2 in HEL cells assessed as increase in acetyl-H4 levels at 20 to 100 nM incubated for 24 hrs by western blot analysis. As to conditions: dose 20-100 nM. In kind it is cell-based.
T1 sequence (Q92769 whole entry): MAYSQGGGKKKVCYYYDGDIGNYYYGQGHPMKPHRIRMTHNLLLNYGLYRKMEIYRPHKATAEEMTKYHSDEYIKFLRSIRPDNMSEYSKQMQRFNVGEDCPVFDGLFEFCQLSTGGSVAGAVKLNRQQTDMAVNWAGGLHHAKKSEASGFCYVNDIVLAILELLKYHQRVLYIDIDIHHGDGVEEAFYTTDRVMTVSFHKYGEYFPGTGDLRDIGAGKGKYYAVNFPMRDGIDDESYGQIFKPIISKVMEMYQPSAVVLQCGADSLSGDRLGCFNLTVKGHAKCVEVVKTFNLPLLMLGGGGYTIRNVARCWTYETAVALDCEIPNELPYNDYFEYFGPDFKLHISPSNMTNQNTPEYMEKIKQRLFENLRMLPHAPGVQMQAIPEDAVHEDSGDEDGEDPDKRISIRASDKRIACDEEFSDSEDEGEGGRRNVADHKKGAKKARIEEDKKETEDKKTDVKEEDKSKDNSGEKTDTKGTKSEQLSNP
In a further assay the test system is HepG2. Put plainly: Antiproliferative activity against human HepG2 cells assessed as cell growth inhibition incubated for 8 hrs by CCK8 assay. The class given is functional, cell-based. Particulars: HepG2, 8 h.
In assay [4] the target is T2, Protein deacetylase HDAC6 (Homo sapiens, UniProt Q9UBN7).
T2 sequence (Q9UBN7 whole entry): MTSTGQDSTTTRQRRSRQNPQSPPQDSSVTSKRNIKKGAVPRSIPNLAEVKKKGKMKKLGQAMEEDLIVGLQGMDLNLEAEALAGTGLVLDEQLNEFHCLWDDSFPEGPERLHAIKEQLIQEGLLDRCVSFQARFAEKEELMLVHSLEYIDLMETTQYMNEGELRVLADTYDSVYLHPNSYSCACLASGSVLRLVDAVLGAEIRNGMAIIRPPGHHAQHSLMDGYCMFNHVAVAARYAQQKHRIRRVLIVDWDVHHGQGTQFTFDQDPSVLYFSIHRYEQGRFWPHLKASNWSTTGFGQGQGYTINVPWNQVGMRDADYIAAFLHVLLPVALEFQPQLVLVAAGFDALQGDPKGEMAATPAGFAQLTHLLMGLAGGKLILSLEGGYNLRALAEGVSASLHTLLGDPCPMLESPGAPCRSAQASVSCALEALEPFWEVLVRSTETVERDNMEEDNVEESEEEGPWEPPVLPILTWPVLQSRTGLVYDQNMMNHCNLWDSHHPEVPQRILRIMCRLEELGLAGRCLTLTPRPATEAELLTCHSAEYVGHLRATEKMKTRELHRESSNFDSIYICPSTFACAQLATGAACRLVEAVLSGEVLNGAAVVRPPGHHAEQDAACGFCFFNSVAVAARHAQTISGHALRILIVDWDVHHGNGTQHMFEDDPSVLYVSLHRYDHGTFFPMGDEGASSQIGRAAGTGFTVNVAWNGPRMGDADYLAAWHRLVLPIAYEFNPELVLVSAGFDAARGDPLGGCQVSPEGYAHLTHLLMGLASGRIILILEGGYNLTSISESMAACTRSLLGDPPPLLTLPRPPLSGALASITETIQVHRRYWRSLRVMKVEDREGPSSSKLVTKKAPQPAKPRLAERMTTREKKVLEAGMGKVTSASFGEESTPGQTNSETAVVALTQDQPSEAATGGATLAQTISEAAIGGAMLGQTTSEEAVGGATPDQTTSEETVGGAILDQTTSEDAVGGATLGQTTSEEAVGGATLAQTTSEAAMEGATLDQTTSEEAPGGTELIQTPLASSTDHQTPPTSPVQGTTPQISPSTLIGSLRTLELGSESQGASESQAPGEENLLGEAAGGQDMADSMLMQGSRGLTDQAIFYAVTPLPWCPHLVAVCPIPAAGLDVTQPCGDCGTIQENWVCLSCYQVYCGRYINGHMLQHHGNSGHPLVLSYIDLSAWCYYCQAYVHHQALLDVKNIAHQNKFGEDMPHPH
Put plainly: Inhibition of full-length recombinant N-terminal GST-tagged human HDAC6 expressed in baculovirus infected Sf9 cells using Ac-Leu-Gly-Lys(Ac)-AMC as substrate preincubated for 5 mins followed by substrate addition and further incubated for 30 mins by fluorescence based microtiter plate reader assay.

In the next assay the target is Histone deacetylase 3 (Homo sapiens, UniProt O15379). The experiment in a line: Inhibition of recombinant His-tagged human HDAC3 expressed in baculovirus infected insect cells using Ac-Leu-Gly-Lys(Ac)-AMC as substrate preincubated for 5 mins followed by substrate addition and further incubated for 30 mins by fluorescence based microtiter plate reader assay.
Histone deacetylase 3, sequence (O15379 whole entry): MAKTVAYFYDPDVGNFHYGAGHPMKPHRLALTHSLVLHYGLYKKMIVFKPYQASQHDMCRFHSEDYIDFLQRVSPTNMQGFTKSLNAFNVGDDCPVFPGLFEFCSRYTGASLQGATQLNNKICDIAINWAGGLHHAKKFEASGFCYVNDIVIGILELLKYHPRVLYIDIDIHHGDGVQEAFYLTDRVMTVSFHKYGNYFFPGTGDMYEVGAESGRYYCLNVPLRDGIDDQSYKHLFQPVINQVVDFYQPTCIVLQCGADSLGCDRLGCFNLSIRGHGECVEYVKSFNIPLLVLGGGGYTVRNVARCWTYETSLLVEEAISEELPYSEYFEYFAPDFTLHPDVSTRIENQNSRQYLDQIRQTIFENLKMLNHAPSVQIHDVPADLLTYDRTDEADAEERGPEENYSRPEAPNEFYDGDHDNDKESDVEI
The target of assay [5] is T1, Histone deacetylase 2. Put plainly: Inhibition of recombinant full length C-terminal GST tagged human HDAC2 expressed in baculovirus infected Sf9 insect cells using Ac-Leu-Gly-Lys(Ac)-AMC as substrate preincubated for 5 mins followed by substrate addition and further incubated for 30 mins by fluorescence based microtiter plate reader assay.
The target in assay [6] is T3, DNA topoisomerase 1 (Homo sapiens) (UniProt P11387).
T3 sequence (whole entry): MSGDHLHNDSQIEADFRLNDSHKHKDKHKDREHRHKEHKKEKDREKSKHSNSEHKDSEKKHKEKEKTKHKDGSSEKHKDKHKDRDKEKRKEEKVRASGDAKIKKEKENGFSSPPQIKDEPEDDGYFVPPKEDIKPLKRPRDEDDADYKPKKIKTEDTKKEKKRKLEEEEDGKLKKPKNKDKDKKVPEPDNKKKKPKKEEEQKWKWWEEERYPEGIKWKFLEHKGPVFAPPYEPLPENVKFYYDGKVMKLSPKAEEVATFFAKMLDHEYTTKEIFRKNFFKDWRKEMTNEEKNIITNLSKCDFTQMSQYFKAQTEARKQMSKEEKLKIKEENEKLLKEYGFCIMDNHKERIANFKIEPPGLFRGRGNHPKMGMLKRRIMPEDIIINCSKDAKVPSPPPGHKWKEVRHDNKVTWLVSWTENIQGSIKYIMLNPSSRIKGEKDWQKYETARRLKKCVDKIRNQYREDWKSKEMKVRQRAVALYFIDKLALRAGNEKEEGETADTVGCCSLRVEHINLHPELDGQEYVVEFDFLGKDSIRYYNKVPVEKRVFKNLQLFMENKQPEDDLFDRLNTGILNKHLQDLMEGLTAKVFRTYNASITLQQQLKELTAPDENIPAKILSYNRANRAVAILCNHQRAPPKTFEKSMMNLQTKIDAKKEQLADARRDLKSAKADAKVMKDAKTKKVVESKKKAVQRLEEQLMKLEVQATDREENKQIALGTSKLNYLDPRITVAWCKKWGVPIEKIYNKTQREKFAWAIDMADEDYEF
Put plainly: Inhibition of recombinant Top1 (unknown origin) assessed as inhibition of relaxation of supercoiled pBR322 plasmid DNA at 50 uM incubated for 15 mins by ethidium bromide staining based agarose gel electrophoresis analysis.

For another assay, the system named is HCT-116. The experiment in a line: Antiproliferative activity against human HCT-116 cells assessed as cell growth inhibition incubated for 8 hrs by CCK8 assay. Particulars: HCT-116, 8 h. In kind it is functional, cell-based.

DNA topoisomerase 2-alpha (Homo sapiens), sequence (P11388 whole entry): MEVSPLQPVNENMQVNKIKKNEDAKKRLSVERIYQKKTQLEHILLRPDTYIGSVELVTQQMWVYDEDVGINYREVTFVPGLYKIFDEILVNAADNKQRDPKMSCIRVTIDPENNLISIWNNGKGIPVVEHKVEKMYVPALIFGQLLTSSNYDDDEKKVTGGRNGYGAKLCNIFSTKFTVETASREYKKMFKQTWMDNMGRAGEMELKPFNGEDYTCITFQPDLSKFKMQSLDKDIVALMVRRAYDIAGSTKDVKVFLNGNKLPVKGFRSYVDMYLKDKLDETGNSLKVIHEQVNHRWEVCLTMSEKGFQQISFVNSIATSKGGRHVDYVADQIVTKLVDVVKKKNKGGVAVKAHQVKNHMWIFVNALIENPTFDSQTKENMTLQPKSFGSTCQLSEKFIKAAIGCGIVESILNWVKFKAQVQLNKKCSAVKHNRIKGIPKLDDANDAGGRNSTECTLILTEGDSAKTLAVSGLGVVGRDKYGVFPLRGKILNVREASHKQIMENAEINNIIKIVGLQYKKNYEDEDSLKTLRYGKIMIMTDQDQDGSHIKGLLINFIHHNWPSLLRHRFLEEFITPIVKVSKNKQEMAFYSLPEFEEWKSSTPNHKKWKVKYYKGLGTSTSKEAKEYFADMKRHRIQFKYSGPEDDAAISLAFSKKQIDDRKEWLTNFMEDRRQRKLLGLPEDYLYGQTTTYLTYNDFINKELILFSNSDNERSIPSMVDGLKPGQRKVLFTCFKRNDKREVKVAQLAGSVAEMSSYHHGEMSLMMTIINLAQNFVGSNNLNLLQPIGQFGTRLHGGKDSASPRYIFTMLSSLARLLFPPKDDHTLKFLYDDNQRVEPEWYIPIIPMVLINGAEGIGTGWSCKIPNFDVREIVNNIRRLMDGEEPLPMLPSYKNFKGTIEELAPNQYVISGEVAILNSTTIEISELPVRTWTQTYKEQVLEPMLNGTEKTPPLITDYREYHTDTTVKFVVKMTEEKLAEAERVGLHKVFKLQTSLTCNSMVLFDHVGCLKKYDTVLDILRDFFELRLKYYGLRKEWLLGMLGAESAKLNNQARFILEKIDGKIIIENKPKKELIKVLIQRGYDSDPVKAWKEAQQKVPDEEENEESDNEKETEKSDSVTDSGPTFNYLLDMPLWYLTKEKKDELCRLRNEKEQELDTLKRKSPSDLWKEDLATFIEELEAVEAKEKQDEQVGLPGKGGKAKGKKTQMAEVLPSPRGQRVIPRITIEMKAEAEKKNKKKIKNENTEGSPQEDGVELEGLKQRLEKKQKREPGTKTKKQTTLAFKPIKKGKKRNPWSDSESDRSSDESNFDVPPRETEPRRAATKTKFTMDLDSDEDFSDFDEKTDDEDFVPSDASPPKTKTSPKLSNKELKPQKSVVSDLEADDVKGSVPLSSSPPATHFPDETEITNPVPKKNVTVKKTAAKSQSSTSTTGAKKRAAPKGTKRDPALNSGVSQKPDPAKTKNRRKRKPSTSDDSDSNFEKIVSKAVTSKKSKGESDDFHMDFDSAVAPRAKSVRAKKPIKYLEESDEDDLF

Consider `CN1c2ccc(F)cc2C(=O)N2CCc3c([nH]c4ccc(OCc5ccc(/C=C/C(=O)Nc6ccccc6N)cc5)cc34)C21` (centres undefined), for which the IC50 in the assay on HEL worked out at 240 nM; with K562 it was 120 nM; on Histone deacetylase 1, 320 nM; with HepG2 it was 290 nM; in [4], 11000 nM; on Histone deacetylase 3 it was 15000 nM. Besides, the IC50 on Histone deacetylase 2 [5] is 42000 nM; with HCT-116, more than 2000 nM. Further, the inhibition result (in [1]; in assay [2]; at Histone deacetylase 2 [3]; in [6]) was “Active” in each case.

As for `CN1c2ccc(F)cc2C(=O)N2CCc3c([nH]c4ccc(OCc5ccc(/C=C/C(=O)NO)cc5)cc34)C21` (centres undefined), the IC50 in the assay with HEL turned out to be 29 nM; with K562, 350 nM; on Histone deacetylase 1, 36 nM; with HepG2, 260 nM; in [4], 89 nM; at Histone deacetylase 3, 59 nM. Besides, the IC50 came to 140 nM on Histone deacetylase 2 [5] and 210 nM with HCT-116. The inhibition entry (in assay [1]; in assay [2]; on Histone deacetylase 2 [3]; in [6]) was “Active” each time.
